Where “and” joins values, the source holds several entries; their conditions need not be identical. Identical values can stand only once. Like-named read-outs stand apart in the source and are kept apart here.
Tests used:
[1] = target: T1, ACE enzyme (from rabbit lung) (Oryctolagus cuniculus, UniProt P12822); assay: In vitro ACE inhibition activity (HA formation from HHL, HPLC-UV)
T1 sequence (P12822 34-1310): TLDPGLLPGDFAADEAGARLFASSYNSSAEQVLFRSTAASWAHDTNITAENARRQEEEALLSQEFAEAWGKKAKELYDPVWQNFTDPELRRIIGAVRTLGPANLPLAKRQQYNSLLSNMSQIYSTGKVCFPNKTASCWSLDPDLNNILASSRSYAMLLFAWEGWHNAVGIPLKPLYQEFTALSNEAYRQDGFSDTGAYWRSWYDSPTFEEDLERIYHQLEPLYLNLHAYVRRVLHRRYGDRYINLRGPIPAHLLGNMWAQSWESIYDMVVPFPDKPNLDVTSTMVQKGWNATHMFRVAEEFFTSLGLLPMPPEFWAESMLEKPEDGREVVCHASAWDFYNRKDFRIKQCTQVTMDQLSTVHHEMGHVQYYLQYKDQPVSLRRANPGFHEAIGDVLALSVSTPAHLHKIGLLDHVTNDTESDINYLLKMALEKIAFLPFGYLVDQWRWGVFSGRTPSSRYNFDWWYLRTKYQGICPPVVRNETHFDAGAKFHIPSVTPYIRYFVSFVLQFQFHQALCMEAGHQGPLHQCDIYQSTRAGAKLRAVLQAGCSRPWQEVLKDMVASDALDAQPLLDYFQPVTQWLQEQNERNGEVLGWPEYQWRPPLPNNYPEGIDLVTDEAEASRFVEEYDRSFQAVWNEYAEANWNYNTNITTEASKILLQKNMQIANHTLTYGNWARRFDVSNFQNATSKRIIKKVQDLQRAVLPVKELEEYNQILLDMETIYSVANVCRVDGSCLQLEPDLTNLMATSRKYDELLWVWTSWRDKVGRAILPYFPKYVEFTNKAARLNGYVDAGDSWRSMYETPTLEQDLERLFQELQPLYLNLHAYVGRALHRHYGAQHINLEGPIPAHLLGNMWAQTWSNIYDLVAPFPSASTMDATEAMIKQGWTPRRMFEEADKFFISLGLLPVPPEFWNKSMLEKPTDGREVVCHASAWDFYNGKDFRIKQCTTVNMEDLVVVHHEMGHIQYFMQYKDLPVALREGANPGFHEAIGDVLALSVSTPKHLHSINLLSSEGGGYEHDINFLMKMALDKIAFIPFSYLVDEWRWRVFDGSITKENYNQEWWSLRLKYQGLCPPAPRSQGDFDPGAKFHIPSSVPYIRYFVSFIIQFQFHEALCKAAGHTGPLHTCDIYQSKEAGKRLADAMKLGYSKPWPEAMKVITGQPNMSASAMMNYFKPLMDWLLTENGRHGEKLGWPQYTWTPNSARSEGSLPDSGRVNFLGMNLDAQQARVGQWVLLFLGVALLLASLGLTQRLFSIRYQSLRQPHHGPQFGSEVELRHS
Experimental: This method relies on determining hippuric acid (HA) formation from ACE-specific substrate hippuryl-histidyl-leucine (HHL) by the action of ACE enzyme, resulting in the removal of C-terminal dipeptide histidylleucine.
The high performance liquid chromatography (HPLC) was performed using an Agilent Technologies (Series 1200 infinity, Frankfurt, Germany) system. Separations were accomplished on a Zorbax Eclipse plus phenyl-hexyl (4.6 mm × 250 mm, 5 µm, Agilent) and the column temperature was maintained at 30 °C. Substrates of HA and HHL were detected at 228 nm. The flow rate was set at 0.6 mL/min and injection volume was 10 μL. The mobile phase consisted of 20% acetonitrile and 80% of 0.1% ammonium dihydrogen phosphate buffer was used in this analysis with 10 min separation time.
For substrate HHL hydrolysis catalyzed by purified rabbit ACE enzyme, the total reaction volume was 200 µL. Phosphate buffer (pH 8.3) was used to dilute the substrate HHL and rabbit lung ACE enzyme. […] The reaction mixtures were incubated for 2 h at 37 °C. The reaction was terminated by heating the samples at 100 °C in water bath, and then 800 µL of water was added to all samples, and they were analyzed by stated HPLC method.
HHL as substrate was prepared freshly in 10 mM phosphate buffer pH 8.3 and then sonicated for 30 min. […] Angiotensin converting enzyme (ACE) was prepared at 0.05 U/mL in phosphate buffer pH 8.3 containing 0.1% bovine serum albumin (BSA). Then, 50 µL of purified ACE enzyme and 20 µL extracts, reference compounds or captopril at different concentrations were added to 130 µL of HHL substrate. Control reaction mixture was contained 20 µL of 50% ethanol instead of extracts. All samples were incubated for 2 h at 37 °C. The reaction was stopped by heating the samples at 100 °C. All samples were analyzed by HPLC after adding 800 µL of water. ACE inhibition rate was calculated by the following equation: ACE inhibition activity of test substances (%) = [(HA concentration levels without test substances) − (HA concentration levels with test substances)/(HA concentration levels without test substances)] × 100 (3)

[2] = Chelation of zinc (II) ion by tetramethylmurexide reagent; assay type: physicochemical; conditions: hexamine/HCl buffer pH 5.0, mean ± SD
Experimental: Therefore, this extract was selected to study its chelation ability with zinc (II) ion. […]. Based on this standard curve, the amount of metal ions bound by the compound tested was evaluated. […].
Briefly, 0.01 M hexamine/HCl buffer was prepared at pH 5.0 with addition of 0.01 M KCl. Stock solution of captopril. […] A series of working sample solutions were prepared by diluting the stock solutions with hexamine/HCl buffer (0–5 mg/mL). ZnCl2 was prepared in the same buffer at concentration of 0.8 mM. Then, 1 mL of sample solutions was mixed with 1 mL ZnCl2 solution and 0.1 mL tetramethylmurexide at concentration of 1 mM. Absorbance was recorded at 462 nm and 530 nm and then the ratio of A462/A530 was calculated. Distilled deionized water was used instead of tetramethylmurexide reagent in control samples. A standard curve of absorbance ratio versus metal ions concentrations (0 to 3.2 mM) was prepared and the percentage of bound metal ions was calculated. Percentage of bond with Zn^2+ = 1 − (Concentration of free Zn^2+/Concentration of total Zn^2+) × 100(4)

Structure (SMILES)	IC50 ([1]; IC50 on in vitro ACE inhibitory assay, purified rabbit lung ACE, HHL substrate, 2 h at 37 °C, mean ± SD (n = 3))	Zn (II) chelating activity (percentage of bound Zn (II)) ([2]; at concentration of 5 mg/mL)	IC50 [1] [µM]	Zn (II) chelating activity (percentage of bound Zn (II)) ([2]; at concentration of 4 mg/mL)
COc1ccc(-c2cc(=O)c3c(O)c(OC)c(OC)cc3o2)cc1O [EUP, eupatorin]	44.6 µM and 44.7 µM	56.03% ± 1.26%	–	–
O=C(/C=C/c1ccc(O)c(O)c1)O[C@H](Cc1ccc(O)c(O)c1)C(=O)O [RA, rosmarinic acid]	–	–	52.2	–
COc1ccc(-c2cc(=O)c3c(OC)c(OC)c(OC)cc3o2)cc1O [TMF, 3′-hydroxy-5,6,7,4′-tetramethoxyflavone]	–	–	77.9	–
COc1ccc(-c2cc(=O)c3c(OC)c(OC)c(OC)cc3o2)cc1OC [SIN, sinensetin]	–	6.71% ± 0.62%	79.2	–
C[C@H](CS)C(=O)N1CCC[C@H]1C(=O)O [Captopril, captopril]	–	–	–	100% ± 1.59%

From PMC6274529, “Flavonoids-Rich Orthosiphon stamineus Extract as New Candidate for Angiotensin I-Converting Enzyme Inhibition: A Molecular Docking Study” (Molecules, 2016)
